# PMC10799085, “A miniaturized mode-of-action profiling platform enables high throughput characterization of the molecular and cellular dynamics of EZH2 inhibition” (Scientific Reports, 2024)
# pIC50: −log10 of the molar value. Like-named read-outs stand apart in the source and are kept apart here.
# What was measured:
# EZH2 = system: EZH2; parameters: method as in Konze et al. [41]; conditions: 40-fold higher enzyme concentration; ref Konze et al. [41]; cited from earlier work
# in vitro = in vitro ADME; conditions: human, Caco-2, pH 7.2; for Papp A→B at 2 h, 2 µM / Papp B→A at 2 h, 2 µM: 37 °C; for Papp A→B at 2 h, 2 µM: apical to basolateral, read-out: PK Caco-2 Flux Papp A-B (mean); for Papp B→A at 2 h, 2 µM: basolateral to apical, read-out: PK Caco-2 Flux Papp B-A (mean)
# Experimental: Cells were kept at 37 °C in a humidified 5% CO2 atmosphere. Before the permeation assay was run, the culture medium was replaced by an FCS-free HEPES carbonate transport buffer (pH 7.2). For assessment of monolayer integrity, the transepithelial electrical resistance was measured. Test compounds were pre-dissolved in DMSO and added either to the apical or basolateral compartment at a final concentration of 2 µM. Before and after 2 h incubation at 37 °C, samples were taken from both compartments. Analysis of compound content was conducted after precipitation with methanol by LC/MS/MS analysis. Reference compounds were analyzed in parallel as assay control. Permeability (Papp) was calculated in the apical to basolateral (A → B) and basolateral to apical (B → A) directions. The efflux ratio basolateral (B) to apical (A) was calculated by dividing Papp B–A by Papp A–B.
# [1] = system: H3K27me3 mark in MDA-MB-231 cells; assay: High content analysis (HCA) of cellular H3K27me3 mark, washout format; assay type: cell-based; conditions: for IC50: Homo sapiens, MDA-MB-231, read-out: Mean IC50 (M), H3K27 methylation HCA
# Experimental: In the low- and high-signal control wells, test compounds were replaced by 10 µM of EZH2 inhibitor (equal to unlabeled probe from ePCA and kPCA) or DMSO, respectively. […] After fixation, the cells were washed with PBS and incubated with 1% BSA blocking solution at RT for 1 h. Blocking solution was discarded, primary monoclonal antibody rabbit Tri-methyl-histone H3K27 (C36B11, Cell signaling) diluted 1:200 in blocking solution was added and incubated overnight at 4 °C. […] Afterwards, cells were washed three times with PBS and incubated at 4 °C until measuring. Fluorescence signals were captured by an Opera Phenix™ High Content Screening (HCA) system (Perkin Elmer) by 10× magnification. […] Microscopy images were initially visualized and preprocessed with MetaXpress High Content Image Acquisition & Analysis Software (Molecular Devices) as previously described. Raw data import, normalization, quality control and fitting curves for IC50 determination of tested compounds were done with Genedata Screener® for high-content screening. Wells with no recognizable signals were masked and the average intensity of the trimethylation signal was normalized to the DMSO control (0%).
# PRC2/EZH2+/+ [2] = target: T1, PRC2/EZH2+/+ (Homo sapiens, UniProt Q15910); assay: Equilibrium binding thermodynamics (van't Hoff analysis of ePCA/kPCA at 5-37 °C); conditions: ePCA at 5-37 °C, wild type EZH2
# T1 construct: purchased Active Motif
# Experimental: (§1) For thermodynamic analysis of the binding to EZH2+/+ the probe characterization, equilibrium and kinetic probe competition assays described above (previously conducted at 25 °C) were performed at 5, 15, 30 and 37 °C. […] For measurements at 25, 30 and 37 °C, the temperature control functionality of the instrument was used.
# Equilibrium and kinetic binding constants obtained at various temperatures were used to determine the thermodynamic parameters by van’t Hoff and Eyring analysis, as described elsewhere for SPR and radioligand binding experiments[46],[69]. For the van’t Hoff thermodynamic analysis, changes in entropy ΔS° and enthalpy ΔH° were estimated by linear regression using the van’t Hoff equation. lnKA=ΔS^∘/R-ΔH^∘/RT,
# Changes in Gibb’s free energy ΔG° were calculated according to. ΔG^∘T=ΔH^∘-T×ΔS^∘
# Additionally, the possible temperature dependence of the thermodynamic parameters was considered using the integrated form of the van’t Hoff equation[47] for nonlinear regression to yield the changes in entropy, enthalpy, and heat capacity ΔCp: ln KA=-ΔH^∘T^∘/RT+ΔS^∘T^∘/R+ΔCp/R[T-T^∘/T-lnT/T^∘],
# PRC2/EZH2+/+ [3] = target: T1, PRC2/EZH2+/+; assay: Transition state thermodynamics (Eyring analysis of kPCA at 5-37 °C); assay type: binding; conditions: Kinetic (Eyre); for Enthalpic Efficiency (kon): association; for Enthalpic Efficiency (koff): dissociation
# Experimental: as §1
# For Eyring transition state analysis, changes in the activation entropy ΔS^# and enthalpy ΔH^# were estimated by Eyring analysis using linear regression of. lnkh/kBT=ΔS^#/R-ΔH^#/(RT).
# To consider the possible temperature dependence, the activation entropy and enthalpy were obtained along with the activation heat capacity ΔC^#p by nonlinear regression using. lnkh/kBT=-ΔH^#T^∘/RT+ΔS^#T^∘/R+ΔCp#/R[T-T^∘/T-lnT/T^∘],
# PRC2/EZH1 = target: T2, PRC2/EZH1 (Homo sapiens, UniProt Q92800); assay: Scintillation proximity assay (SPA) of H3K27 methylation; assay type: biochemical
# T2 construct: N-terminal 6His-tagged full length EZH2^Y641N, EZH2^Y111L, EZH2^Y111D, EZH2^Y641N, Y661DEZH2, EZH1; 6His (N); made in house; host or cells: Sf9 insect cells (baculovirus co-infection)
# T1 sequence (Q15910 whole entry): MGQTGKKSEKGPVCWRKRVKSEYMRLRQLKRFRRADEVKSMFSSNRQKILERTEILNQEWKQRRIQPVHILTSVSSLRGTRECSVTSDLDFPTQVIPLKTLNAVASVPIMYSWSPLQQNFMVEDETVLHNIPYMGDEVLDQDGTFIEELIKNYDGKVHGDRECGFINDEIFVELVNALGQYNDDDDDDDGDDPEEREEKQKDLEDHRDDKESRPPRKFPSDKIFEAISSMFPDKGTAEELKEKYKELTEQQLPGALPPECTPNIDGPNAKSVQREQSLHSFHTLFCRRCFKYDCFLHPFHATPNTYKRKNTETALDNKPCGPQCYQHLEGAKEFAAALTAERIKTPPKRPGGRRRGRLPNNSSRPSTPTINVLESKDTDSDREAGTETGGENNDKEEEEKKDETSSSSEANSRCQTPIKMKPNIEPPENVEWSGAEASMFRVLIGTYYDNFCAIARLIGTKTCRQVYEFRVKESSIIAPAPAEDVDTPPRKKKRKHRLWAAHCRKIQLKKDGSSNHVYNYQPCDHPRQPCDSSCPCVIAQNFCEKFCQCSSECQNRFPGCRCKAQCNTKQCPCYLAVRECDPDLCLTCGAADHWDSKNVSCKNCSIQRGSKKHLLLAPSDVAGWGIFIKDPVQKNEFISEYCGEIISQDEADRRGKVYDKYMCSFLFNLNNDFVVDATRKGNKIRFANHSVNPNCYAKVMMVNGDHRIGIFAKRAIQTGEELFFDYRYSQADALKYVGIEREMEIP
# T1 sequence (O75530 whole entry partner): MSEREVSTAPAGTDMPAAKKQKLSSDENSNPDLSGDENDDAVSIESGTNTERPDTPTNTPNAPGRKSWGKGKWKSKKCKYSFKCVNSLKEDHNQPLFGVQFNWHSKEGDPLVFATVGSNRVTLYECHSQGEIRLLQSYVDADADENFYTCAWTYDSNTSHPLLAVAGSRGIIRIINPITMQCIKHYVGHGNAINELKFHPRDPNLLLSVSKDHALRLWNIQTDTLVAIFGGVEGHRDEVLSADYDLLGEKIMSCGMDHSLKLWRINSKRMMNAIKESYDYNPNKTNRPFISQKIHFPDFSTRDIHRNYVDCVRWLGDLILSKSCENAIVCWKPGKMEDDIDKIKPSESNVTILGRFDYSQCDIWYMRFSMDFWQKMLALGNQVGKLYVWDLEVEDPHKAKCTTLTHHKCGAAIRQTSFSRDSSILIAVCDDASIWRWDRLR
# T1 sequence (Q15022 whole entry partner): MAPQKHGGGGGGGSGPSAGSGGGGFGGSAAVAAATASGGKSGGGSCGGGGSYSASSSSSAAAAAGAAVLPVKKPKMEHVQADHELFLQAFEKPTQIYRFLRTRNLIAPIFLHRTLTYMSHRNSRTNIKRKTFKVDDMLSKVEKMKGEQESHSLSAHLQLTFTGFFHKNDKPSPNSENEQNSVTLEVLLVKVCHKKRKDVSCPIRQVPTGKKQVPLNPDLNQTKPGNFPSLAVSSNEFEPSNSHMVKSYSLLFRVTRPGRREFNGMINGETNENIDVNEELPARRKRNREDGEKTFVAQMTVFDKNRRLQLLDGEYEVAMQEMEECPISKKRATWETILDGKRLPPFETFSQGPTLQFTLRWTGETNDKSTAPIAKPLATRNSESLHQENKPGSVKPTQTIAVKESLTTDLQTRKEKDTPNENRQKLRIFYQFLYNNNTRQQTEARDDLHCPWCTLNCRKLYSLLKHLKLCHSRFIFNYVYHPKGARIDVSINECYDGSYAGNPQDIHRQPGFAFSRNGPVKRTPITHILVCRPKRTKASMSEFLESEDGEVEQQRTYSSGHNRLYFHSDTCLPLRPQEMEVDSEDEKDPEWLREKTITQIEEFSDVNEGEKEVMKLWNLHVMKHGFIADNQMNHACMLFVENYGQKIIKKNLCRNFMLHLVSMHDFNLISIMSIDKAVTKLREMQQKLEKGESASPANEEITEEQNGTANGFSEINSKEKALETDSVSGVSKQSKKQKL
# T1 sequence (Q09028 whole entry partner): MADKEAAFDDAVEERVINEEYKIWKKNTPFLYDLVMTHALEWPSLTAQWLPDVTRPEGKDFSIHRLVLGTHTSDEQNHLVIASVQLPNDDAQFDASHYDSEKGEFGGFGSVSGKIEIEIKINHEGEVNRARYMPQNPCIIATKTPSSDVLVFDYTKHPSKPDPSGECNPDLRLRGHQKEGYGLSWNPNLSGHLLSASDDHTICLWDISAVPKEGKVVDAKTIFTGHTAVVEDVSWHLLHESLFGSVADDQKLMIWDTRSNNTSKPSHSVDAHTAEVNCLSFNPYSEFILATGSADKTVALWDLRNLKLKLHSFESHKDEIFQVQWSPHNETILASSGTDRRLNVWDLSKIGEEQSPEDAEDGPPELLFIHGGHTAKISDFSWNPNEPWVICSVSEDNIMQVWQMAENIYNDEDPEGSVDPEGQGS
# T1 sequence (Q6ZN18 whole entry partner): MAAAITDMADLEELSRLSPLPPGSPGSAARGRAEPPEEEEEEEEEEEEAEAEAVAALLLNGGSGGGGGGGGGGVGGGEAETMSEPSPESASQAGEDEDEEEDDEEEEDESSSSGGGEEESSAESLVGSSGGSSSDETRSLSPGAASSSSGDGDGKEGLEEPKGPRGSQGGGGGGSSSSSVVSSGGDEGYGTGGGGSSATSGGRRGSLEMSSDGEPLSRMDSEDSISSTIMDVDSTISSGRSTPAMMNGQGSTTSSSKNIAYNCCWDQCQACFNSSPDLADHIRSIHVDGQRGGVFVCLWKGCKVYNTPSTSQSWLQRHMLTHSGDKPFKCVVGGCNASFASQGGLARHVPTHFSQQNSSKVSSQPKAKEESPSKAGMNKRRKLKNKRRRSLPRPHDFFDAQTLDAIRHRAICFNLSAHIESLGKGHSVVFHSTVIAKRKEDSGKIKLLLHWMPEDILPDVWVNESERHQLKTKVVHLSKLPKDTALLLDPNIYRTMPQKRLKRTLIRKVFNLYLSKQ
compound,measurement,setting,value
"CCCc1cc(C)[nH]c(=O)c1CNC(=O)c1cc(-c2ccc(N3CCN(C(C)C)CC3)nc2)cc2c1cnn2C(C)C [Compound 9, UNC1999]",pIC50,EZH2,8.00
same,"Papp A→B at 2 h, 2 µM",in vitro,0.314 ×10⁻⁶ cm/s
same,"Papp B→A at 2 h, 2 µM",in vitro,12.6 ×10⁻⁶ cm/s
Cc1cc(C)c(CN2CCc3c(Cl)cc(-c4c(C)noc4C)c(Cl)c3C2=O)c(=O)[nH]1 [Compound 14],AUC (a.u.),[1]; HCA H3K27 methylation washout pIC50 AUC over all incubation/washout times,92.2 a.u.
same,IC50,"[1]; incubation time 0.5 h, washout time 71.5 h",7e-06 M
same,IC50,"[1]; incubation time 1 h, washout time 71 h",4.1e-06 M
same,IC50,"[1]; incubation time 2 h, washout time 70 h",2.9e-06 M
same,IC50,"[1]; incubation time 4 h, washout time 68 h",1.8e-06 M
same,IC50,"[1]; incubation time 24 h, washout time 48 h",1.6e-06 M
same,IC50,"[1]; incubation time 48 h, washout time 24 h",5.5e-07 M
same,IC50,"[1]; incubation time 72 h, washout time 0 h",4.6e-08 M
same,"binding driving force, polynomial van't Hoff analysis",PRC2/EZH2+/+ [2],entropy-driven
same,Enthalpic Efficiency (kon),PRC2/EZH2+/+ [3]; EZH2+/+ (Linear Fit),1.3 kcal/mol
same,Enthalpic Efficiency (koff),PRC2/EZH2+/+ [3]; EZH2+/+ (Linear Fit),1.9 kcal/mol
same,-T * ΔS°kon-koff,PRC2/EZH2+/+ [3]; EZH2+/+ (Linear Fit),-7.51 kcal/mol
same,ΔG°kon-koff,PRC2/EZH2+/+ [3]; EZH2+/+ (Linear Fit),-12 kcal/mol
same,ΔH°kon-koff,PRC2/EZH2+/+ [3]; EZH2+/+ (Linear Fit),-4.49 kcal/mol
same,Enthalpic Efficiency (kon),PRC2/EZH2+/+ [3]; EZH2+/+ (Non-linear Fit),0.47 kcal/mol
same,Enthalpic Efficiency (koff),PRC2/EZH2+/+ [3]; EZH2+/+ (Non-linear Fit),1.3 kcal/mol
same,-T * ΔS°kon-koff,PRC2/EZH2+/+ [3]; EZH2+/+ (Non-linear Fit),-5.28 kcal/mol
same,ΔG°kon-koff,PRC2/EZH2+/+ [3]; EZH2+/+ (Non-linear Fit),-12.1 kcal/mol
same,ΔH°kon-koff,PRC2/EZH2+/+ [3]; EZH2+/+ (Non-linear Fit),-6.79 kcal/mol
same,Ligand Efficiency - 0' enzyme:inhibitor pre-incubation EZH1,PRC2/EZH1,1.1
same,Ligand Efficiency - 15' enzyme:inhibitor pre-incubation EZH1,PRC2/EZH1,1.1
same,Ligand Efficiency - 60' enzyme:inhibitor pre-incubation EZH1,PRC2/EZH1,1.1
same,IC50,"PRC2/EZH1; 0' enzyme:inhibitor pre-incubation, read-out: SPA Mean IC50 (M) - 0' enzyme:inhibitor pre-incubation EZH1",3.1e-07 M
same,IC50,"PRC2/EZH1; 15' enzyme:inhibitor pre-incubation, read-out: SPA Mean IC50 (M) - 15' enzyme:inhibitor pre-incubation EZH1",2.9e-07 M
same,IC50,"PRC2/EZH1; 60' enzyme:inhibitor pre-incubation, read-out: SPA Mean IC50 (M) - 60' enzyme:inhibitor pre-incubation EZH1",2.9e-07 M
same,"Papp A→B at 2 h, 2 µM",in vitro,15.4 ×10⁻⁶ cm/s
same,"Papp B→A at 2 h, 2 µM",in vitro,17.4 ×10⁻⁶ cm/s
same,"efflux ratio at 2 h, 2 µM","in vitro; Papp B-A divided by Papp A-B, read-out: PK Caco-2 Flux Efflux Ratio (mean)",1.13
